The record followed here is patent US9452986B2, “6-heteroaryloxy- or 6-aryloxy-quinoline-2-carboxamides and method of use” (AbbVie Inc., priority 2014, dated 2016).

Assay [1] deals with recombinant human Nav1.7 (Homo sapiens (Human), UniProt Q15858). Put plainly: FRET-based membrane potential assay, recombinant human sodium channel Nav1.7. The conditions noted are these: read-out: FRET-Membrane Potential Nav1.7 IC50. In kind it is cell-based. In short, it runs like this: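 Channel activation used veratridine at its EC80, set by a dilution curve each experiment, together with Leiurus scorpion venom, added 3 min after compound. Membrane-potential ratio signals from FLIPR Tetra in HEPES-buffered HBSS were fitted to a four-parameter Hill equation for percent inhibition and IC50.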
Chain of recombinant human Nav1.7 (Q15858 whole entry): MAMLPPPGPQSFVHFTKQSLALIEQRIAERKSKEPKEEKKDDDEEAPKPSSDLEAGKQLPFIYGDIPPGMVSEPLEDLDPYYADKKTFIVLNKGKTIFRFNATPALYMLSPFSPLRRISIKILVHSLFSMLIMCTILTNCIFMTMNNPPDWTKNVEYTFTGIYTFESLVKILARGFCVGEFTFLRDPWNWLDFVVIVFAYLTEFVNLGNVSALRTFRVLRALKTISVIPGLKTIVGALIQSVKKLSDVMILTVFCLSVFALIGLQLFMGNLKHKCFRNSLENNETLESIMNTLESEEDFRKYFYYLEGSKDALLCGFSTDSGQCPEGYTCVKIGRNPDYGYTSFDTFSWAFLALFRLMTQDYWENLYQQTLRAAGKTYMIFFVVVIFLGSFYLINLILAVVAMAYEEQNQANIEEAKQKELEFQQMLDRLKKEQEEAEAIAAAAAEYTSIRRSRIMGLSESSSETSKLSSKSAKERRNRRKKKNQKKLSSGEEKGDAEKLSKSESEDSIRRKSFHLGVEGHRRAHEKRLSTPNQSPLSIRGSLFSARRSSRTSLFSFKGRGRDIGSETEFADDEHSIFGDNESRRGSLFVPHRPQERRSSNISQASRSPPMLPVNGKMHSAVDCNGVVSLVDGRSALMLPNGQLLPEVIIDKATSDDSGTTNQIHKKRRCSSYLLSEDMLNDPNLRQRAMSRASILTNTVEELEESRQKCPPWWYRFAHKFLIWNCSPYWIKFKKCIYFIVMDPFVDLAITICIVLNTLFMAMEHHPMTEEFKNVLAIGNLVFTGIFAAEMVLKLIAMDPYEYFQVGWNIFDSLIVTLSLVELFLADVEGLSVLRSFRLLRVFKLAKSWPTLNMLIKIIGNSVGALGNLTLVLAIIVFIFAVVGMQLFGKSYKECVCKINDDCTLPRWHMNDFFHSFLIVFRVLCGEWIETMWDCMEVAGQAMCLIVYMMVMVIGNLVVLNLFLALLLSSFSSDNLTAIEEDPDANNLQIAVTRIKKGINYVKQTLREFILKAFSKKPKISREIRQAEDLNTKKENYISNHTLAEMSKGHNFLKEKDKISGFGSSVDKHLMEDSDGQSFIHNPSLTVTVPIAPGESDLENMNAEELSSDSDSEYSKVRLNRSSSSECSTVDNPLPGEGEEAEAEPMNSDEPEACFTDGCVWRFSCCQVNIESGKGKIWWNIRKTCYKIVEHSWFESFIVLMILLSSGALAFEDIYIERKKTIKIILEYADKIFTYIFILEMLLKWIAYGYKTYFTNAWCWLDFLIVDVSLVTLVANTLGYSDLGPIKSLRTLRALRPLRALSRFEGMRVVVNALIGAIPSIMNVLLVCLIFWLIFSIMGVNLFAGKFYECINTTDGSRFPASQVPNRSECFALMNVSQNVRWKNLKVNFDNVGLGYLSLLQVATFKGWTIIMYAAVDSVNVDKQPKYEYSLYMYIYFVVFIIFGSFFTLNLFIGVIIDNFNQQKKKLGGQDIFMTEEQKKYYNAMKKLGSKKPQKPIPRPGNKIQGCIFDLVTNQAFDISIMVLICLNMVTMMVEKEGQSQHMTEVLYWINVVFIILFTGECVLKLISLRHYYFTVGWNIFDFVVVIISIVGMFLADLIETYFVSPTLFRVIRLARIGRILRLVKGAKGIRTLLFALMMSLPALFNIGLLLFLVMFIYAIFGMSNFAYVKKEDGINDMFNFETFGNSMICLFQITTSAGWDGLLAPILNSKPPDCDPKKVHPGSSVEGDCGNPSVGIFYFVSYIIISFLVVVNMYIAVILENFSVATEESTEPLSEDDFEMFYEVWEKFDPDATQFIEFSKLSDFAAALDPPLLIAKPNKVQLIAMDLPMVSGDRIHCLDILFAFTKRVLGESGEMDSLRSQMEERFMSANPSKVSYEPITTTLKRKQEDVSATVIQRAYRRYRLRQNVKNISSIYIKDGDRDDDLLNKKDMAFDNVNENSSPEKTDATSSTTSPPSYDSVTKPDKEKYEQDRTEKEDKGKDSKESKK

Assay [2] addresses recombinant human Nav1.8 (Homo sapiens (Human), UniProt Q9Y5Y9). Put plainly: FRET-based membrane potential assay, recombinant human sodium channel Nav1.8. In kind it is cell-based.
For assay [3], the system named is osteoarthritic rats. Put plainly: Osteoarthritic (OA) pain induced by sodium monoiodoacetate (MIA), hind limb grip force. The conditions noted are these: for inhibition in vivo at 30 mg/kg / inhibition in vivo at 10 mg/kg: Rattus norvegicus, 480 h, read-out: OA MPE. It counts as in vivo, rat. In short, it runs like this: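 Male Sprague Dawley rats (150-175 g) received a single unilateral intra-articular knee injection of MIA (3 mg/rat) and were tested 20 days later. Peak hind limb grip force (CFmax, g force/kg body weight, mean of two trials) was scored blinded. % effect set vehicle as 0% and age-matched naïve rats as 100%.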

[4] abbreviates: HEK293 cells stably expressing recombinant human Nav1.7, veratridine + scorpion venom depolarization.
Setting [5] is: HEK293 cells stably expressing recombinant human Nav1.8, veratridine + scorpion venom depolarization.
Setting [6] is: OA dose 30 mg/kg, rat, 20 days following MIA injection, hind limb grip force.
The mark [7] stands for this setting: OA dose 10 mg/kg, rat, 20 days following MIA injection, hind limb grip force.

Where two headings read alike, the source gives them in different places.

Chain of recombinant human Nav1.8 (Q9Y5Y9 whole entry): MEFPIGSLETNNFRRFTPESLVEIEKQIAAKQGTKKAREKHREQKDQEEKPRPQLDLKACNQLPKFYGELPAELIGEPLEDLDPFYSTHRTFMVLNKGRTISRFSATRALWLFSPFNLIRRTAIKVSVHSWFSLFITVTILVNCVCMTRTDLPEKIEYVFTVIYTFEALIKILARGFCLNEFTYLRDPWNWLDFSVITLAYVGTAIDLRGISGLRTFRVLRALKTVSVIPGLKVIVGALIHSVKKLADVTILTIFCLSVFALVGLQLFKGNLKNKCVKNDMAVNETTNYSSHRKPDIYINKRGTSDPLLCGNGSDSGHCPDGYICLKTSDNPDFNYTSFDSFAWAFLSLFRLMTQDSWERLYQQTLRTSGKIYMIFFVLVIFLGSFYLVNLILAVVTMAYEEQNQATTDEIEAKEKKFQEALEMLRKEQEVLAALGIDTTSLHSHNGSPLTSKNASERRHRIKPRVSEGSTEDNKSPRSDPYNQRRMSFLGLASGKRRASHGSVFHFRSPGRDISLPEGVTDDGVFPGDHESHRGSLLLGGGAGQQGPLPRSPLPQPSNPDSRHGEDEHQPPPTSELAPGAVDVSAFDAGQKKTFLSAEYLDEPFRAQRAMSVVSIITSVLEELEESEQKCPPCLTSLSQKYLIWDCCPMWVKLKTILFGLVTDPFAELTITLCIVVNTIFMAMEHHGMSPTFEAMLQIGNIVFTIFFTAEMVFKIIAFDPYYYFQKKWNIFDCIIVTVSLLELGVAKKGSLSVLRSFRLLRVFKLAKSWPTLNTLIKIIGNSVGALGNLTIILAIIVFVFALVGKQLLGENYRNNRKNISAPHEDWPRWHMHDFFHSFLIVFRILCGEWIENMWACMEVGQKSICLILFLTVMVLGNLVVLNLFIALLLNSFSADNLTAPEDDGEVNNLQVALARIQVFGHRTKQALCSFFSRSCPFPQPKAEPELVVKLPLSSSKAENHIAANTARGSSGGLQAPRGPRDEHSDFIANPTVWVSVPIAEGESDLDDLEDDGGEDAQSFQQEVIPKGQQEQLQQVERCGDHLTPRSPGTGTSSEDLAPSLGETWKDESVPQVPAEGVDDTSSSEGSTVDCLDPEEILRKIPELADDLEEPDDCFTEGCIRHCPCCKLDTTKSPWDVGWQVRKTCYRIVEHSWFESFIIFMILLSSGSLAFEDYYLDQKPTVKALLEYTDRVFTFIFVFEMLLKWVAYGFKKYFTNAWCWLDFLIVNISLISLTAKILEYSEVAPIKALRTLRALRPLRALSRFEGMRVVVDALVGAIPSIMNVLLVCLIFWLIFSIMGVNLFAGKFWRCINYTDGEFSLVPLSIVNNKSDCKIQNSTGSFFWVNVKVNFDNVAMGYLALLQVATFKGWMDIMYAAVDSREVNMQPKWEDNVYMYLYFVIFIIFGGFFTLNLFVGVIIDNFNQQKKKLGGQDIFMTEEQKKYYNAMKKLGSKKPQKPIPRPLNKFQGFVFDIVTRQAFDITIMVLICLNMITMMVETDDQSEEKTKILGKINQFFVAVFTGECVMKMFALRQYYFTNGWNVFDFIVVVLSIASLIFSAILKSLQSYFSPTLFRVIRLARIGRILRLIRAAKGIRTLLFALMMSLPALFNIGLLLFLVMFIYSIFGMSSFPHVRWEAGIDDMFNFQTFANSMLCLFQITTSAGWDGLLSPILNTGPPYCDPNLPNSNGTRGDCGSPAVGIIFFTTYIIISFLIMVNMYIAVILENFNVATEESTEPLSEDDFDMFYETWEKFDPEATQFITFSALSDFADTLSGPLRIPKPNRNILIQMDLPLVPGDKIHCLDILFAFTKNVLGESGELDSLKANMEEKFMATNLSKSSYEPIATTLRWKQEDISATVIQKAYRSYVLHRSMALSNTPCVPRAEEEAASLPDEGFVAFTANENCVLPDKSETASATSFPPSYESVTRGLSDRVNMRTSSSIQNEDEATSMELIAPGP

Regarding `O=C(c1ccc2cc(Oc3ccc(C(F)(F)F)cn3)ccc2n1)N1CCC12COC2` [Example 505, 6-oxa-1-azaspiro[3.3]hept-1-yl(6-{[5-(trifluoromethyl)pyridin-2-yl]oxy}quinolin-2-yl)methanone], the IC50 turned out to be 4940 nM in assay [1] (setting [4]) and 2300 nM in assay [2] (setting [5]). In addition, the inhibition in vivo at 30 mg/kg in assay [3] turned out to be 52%.
Consider `NC1CN(C(=O)c2ccc3cc(Oc4ccc(C(F)(F)F)nc4)ccc3n2)C1` [Example 66, (3-amino azetidin-1-yl)(6-{[6-(trifluoromethyl)pyridin-3-yl]oxy}quinolin-2-yl)methanone], for which the results for the IC50 in assay [1] (setting [4]) and in assay [2] were 883 nM and 1180 nM, respectively. Besides, in assay [3] (setting [6]), the inhibition in vivo at 30 mg/kg was 52%.
`CC1CN(C(=O)c2ccc3cc(Oc4ccc(C(F)F)cn4)ccc3n2)CC(C)N1` (stereo not drawn) [Example 67, (6-{[5-(difluoromethyl)pyridin-2-yl]oxy}quinolin-2-yl)(3,5-dimethylpiperazin-1-yl)methanone]: the IC50 stood at 1280 nM in assay [1] (setting [4]) and 1750 nM in assay [2] (setting [5]). Further, in assay [3] (setting [7]), the inhibition in vivo at 10 mg/kg amounted to 43%.
Turning to `O=C(c1ccc2cc(Oc3ccc(C(F)(F)F)cn3)ccc2n1)N1CC(N2CC[C@@H](F)C2)C1` [Example 70, {3-[(3R)-3-fluoropyrrolidin-1-yl]azetidin-1-yl}(6-{[5-(trifluoromethyl)pyridin-2-yl]oxy}quinolin-2-yl)methanone], the IC50 in assay [1] was 1250 nM; in assay [2] it was 821 nM. Further, the inhibition in vivo at 10 mg/kg in assay [3] (setting [7]) was determined as 23%.
As to `CC1(NC(=O)c2ccc3cc(Oc4ccc(C(F)(F)F)cn4)ccc3n2)COC1` [Example 48, N-(3-methyloxetan-3-yl)-6-{[5-(trifluoromethyl)pyridin-2-yl]oxy}quinoline-2-carboxamide], the IC50 in assay [1] (setting [4]) amounted to 4430 nM; in assay [2] (setting [5]), 774 nM. Besides, the inhibition in vivo at 10 mg/kg in assay [3] (setting [7]) turned out to be 41%.
The matching figures for `COCCNC(=O)c1ccc2cc(Oc3ccc(C(F)(F)F)nc3)ccc2n1` [Example 56, N-(2-methoxyethyl)-6-{[6-(trifluoromethyl)pyridin-3-yl]oxy}quinoline-2-carboxamide]: 3010 nM, 1490 nM and 43%.
As for `COC[C@@H]1CN(C(=O)c2ccc3cc(Oc4ccc(C(F)F)cn4)ccc3n2)CCN1` [Example 69, (6-{[5-(difluoromethyl)pyridin-2-yl]oxy}quinolin-2-yl)[(3S)-3-(methoxymethyl)piperazin-1-yl]methanone], the IC50 was determined as 895 nM in assay [1] (setting [4]) and 2320 nM in assay [2] (setting [5]). In addition, the inhibition in vivo at 10 mg/kg in assay [3] (setting [7]) turned out to be 2%.
Turning to `O=C(c1ccc2cc(Oc3ccc(C(F)(F)F)cn3)ccc2n1)N1CCN(CCO)CC1` [Example 28, [4-(2-hydroxyethyl)piperazin-1-yl](6-{[5-(trifluoromethyl)pyridin-2-yl]oxy}quinolin-2-yl)methanone], the IC50 in assay [1] (setting [4]) was 3060 nM; in assay [2] (setting [5]) it was 4220 nM. The inhibition in vivo at 10 mg/kg in assay [3] (setting [7]) came out at 16%.
In the case of `COC[C@@H]1CN(C(=O)c2ccc3cc(Oc4ccc(C(F)(F)F)nc4)ccc3n2)CCN1` [Example 64, [(3S)-3-(methoxymethyl)piperazin-1-yl](6-{[6-(trifluoromethyl)pyridin-3-yl]oxy}quinolin-2-yl)methanone], the IC50 was 382 nM in assay [1] (setting [4]) and 491 nM in assay [2]. In addition, the inhibition in vivo at 10 mg/kg in assay [3] (setting [7]) was found to be 29%.
In the case of `CN1CC(NC(=O)c2ccc3cc(Oc4ccc(C(F)(F)F)cn4)ccc3n2)CC1=O` (single isomer, unassigned) [Example 73, N-[(3R*)-1-methyl-5-oxopyrrolidin-3-yl]-6-{[5-(trifluoromethyl)pyridin-2-yl]oxy}quinoline-2-carboxamide], the IC50 in assay [1] (setting [4]) was 1440 nM; in assay [2] (setting [5]) it was 1700 nM. The inhibition in vivo at 30 mg/kg in assay [3] (setting [6]) was 66%.
Take `CCN1CC(NC(=O)c2ccc3cc(Oc4ccc(C(F)F)cn4)ccc3n2)CC1=O` (stereo not drawn) [Example 46, 6-{[5-(difluoromethyl)pyridin-2-yl]oxy}-N-(1-ethyl-5-oxopyrrolidin-3-yl)quinoline-2-carboxamide]: the figures for the IC50 in assay [1] (setting [4]) and in assay [2] (setting [5]) were 344 nM and 501 nM, respectively. For the same compound, the inhibition in vivo at 30 mg/kg in assay [3] (setting [6]) was found to be 98%.
In the case of `N[C@@H]1[C@H]2CN(C(=O)c3ccc4cc(Oc5ccc(C(F)(F)F)cn5)ccc4n3)C[C@@H]12` [Example 36, meso-[(1R,5S,6s)-6-amino-3-azabicyclo[3.1.0]hex-3-yl](6-{[5-(trifluoromethyl)pyridin-2-yl]oxy}quinolin-2-yl)methanone], the IC50 in assay [1] (setting [4]) was 727 nM; in assay [2] (setting [5]), 1420 nM. Moreover, the “OA MPE” value in assay [3] (setting [7]) turned out to be 55%.
On to `O=C(c1ccc2cc(Oc3ccc(C(F)(F)F)cn3)ccc2n1)N1CC(OCC(F)F)C1` [Example 619, [3-(2,2-difluoroethoxy)azetidin-1-yl](6-{[5-(trifluoromethyl)pyridin-2-yl]oxy}quinolin-2-yl)methanone], for which the IC50 in assay [1] (setting [4]) is 2880 nM; in assay [2] (setting [5]), 2910 nM. Moreover, the inhibition in vivo at 30 mg/kg in assay [3] (setting [6]) is 53%.
As for `O=C(c1ccc2cc(Oc3ccc(OC(F)F)cn3)ccc2n1)N1CCNCC1` [Example 57, (6-{[5-(difluoromethoxy)pyridin-2-yl]oxy}quinolin-2-yl)(piperazin-1-yl)methanone], the IC50 worked out at 3190 nM in assay [1] (setting [4]) and 870 nM in assay [2] (setting [5]). For the same compound, the inhibition in vivo at 30 mg/kg in assay [3] (setting [6]) amounted to 53%.
As for `O=C(c1ccc2cc(Oc3ccc(C(F)(F)F)nc3)ccc2n1)N1CCNCC1` [Example 19, piperazin-1-yl(6-{[6-(trifluoromethyl)pyridin-3-yl]oxy}quinolin-2-yl)methanone], the IC50 came to 1260 nM in assay [1] (setting [4]) and 3960 nM in assay [2] (setting [5]). In assay [3] (setting [6]), the inhibition in vivo at 30 mg/kg is 64%.
As to `O=C(c1ccc2cc(Oc3ccc(C(F)(F)F)cn3)ccc2n1)N1CCN(C2CCC2)CC1` [Example 47, (4-cyclobutylpiperazin-1-yl)(6-{[5-(trifluoromethyl)pyridin-2-yl]oxy}quinolin-2-yl)methanone], the IC50 was 1420 nM in assay [1] and 334 nM in assay [2] (setting [5]). In addition, the inhibition in vivo at 10 mg/kg in assay [3] (setting [7]) was 30%.
On to `CN1CC(NC(=O)c2ccc3cc(Oc4ccc(C(F)(F)F)cn4)ccc3n2)CC1=O` (single isomer, unassigned) [Example 74, N-[(3S*)-1-methyl-5-oxopyrrolidin-3-yl]-6-{[5-(trifluoromethyl)pyridin-2-yl]oxy}quinoline-2-carboxamide], for which the IC50 in assay [1] (setting [4]) stood at 863 nM; in assay [2] (setting [5]) it was 1880 nM. In assay [3] (setting [6]), the “OA MPE” value is recorded as 69%.
For the compound `CCN1CCC(N(CC)C(=O)c2ccc3cc(Oc4ccc(C(F)(F)F)cn4)ccc3n2)CC1=O` (stereo not drawn) [Example 61, N-ethyl-N-(1-ethyl-2-oxopiperidin-4-yl)-6-{[5-(trifluoromethyl)pyridin-2-yl]oxy}quinoline-2-carboxamide], the IC50 is 556 nM in assay [1] (setting [4]) and 1140 nM in assay [2] (setting [5]). Further, in assay [3] (setting [7]), the inhibition in vivo at 10 mg/kg was 61%.
As to `O=C(c1ccc2cc(Oc3ccc(C(F)(F)F)cn3)ccc2n1)N1CCN2CC(F)(F)C[C@H]2C1` [Example 53, [(8aS)-7,7-difluorohexahydropyrrolo[1,2-a]pyrazin-2(1H)-yl](6-{[5-(trifluoromethyl)pyridin-2-yl]oxy}quinolin-2-yl)methanone], the figures for the IC50 in assay [1] (setting [4]) and in assay [2] (setting [5]) were 3260 nM and 11000 nM, respectively. In assay [3] (setting [6]), the inhibition in vivo at 30 mg/kg stood at 70%.
With `N[C@@H]1[C@H]2CN(C(=O)c3ccc4cc(Oc5ccc(C(F)F)cn5)ccc4n3)C[C@@H]12` [Example 49, meso-[(1R,5S,6s)-6-amino-3-azabicyclo[3.1.0]hex-3-yl](6-{[5-(difluoromethyl)pyridin-2-yl]oxy}quinolin-2-yl)methanone], the figures for the IC50 in assay [1] (setting [4]) and in assay [2] (setting [5]) were 2270 nM and 702 nM, respectively. Also, the “OA MPE” value in assay [3] (setting [6]) is 58%.
As for `COC[C@H]1CN(C(=O)c2ccc3cc(Oc4ccc(C(F)(F)F)nc4)ccc3n2)CCN1` [Example 63, [(3R)-3-(methoxymethyl)piperazin-1-yl](6-{[6-(trifluoromethyl)pyridin-3-yl]oxy}quinolin-2-yl)methanone], the figures for the IC50 in assay [1] (setting [4]) and in assay [2] were 976 nM and 1160 nM, respectively. Moreover, the inhibition in vivo at 10 mg/kg in assay [3] (setting [7]) was found to be 15%.
For `O=C(c1ccc2cc(Oc3ccc(C(F)(F)F)cn3)ccc2n1)N1CC(O)C1` [Example 18, (3-hydroxyazetidin-1-yl)(6-{[5-(trifluoromethyl)pyridin-2-yl]oxy}quinolin-2-yl)methanone], the IC50 in assay [1] (setting [4]) worked out at 2200 nM; in assay [2], 5340 nM. The inhibition in vivo at 10 mg/kg in assay [3] (setting [7]) is 23%.
On to `O=C(c1ccc2cc(Oc3ccc(OC(F)(F)F)cn3)ccc2n1)N1CC[C@@H](F)C1` [Example 301, [(3R)-3-fluoropyrrolidin-1-yl](6-{[5-(trifluoromethoxy)pyridin-2-yl]oxy}quinolin-2-yl)methanone], for which the IC50 in assay [1] (setting [4]) worked out at 3120 nM; in assay [2] (setting [5]), 1400 nM. Besides, in assay [3] (setting [6]), the inhibition in vivo at 30 mg/kg was 58%.
Consider `CC[C@@H]1CN(C(=O)c2ccc3cc(Oc4ccc(C(F)F)cn4)ccc3n2)CCN1` [Example 55, (6-{[5-(difluoromethyl)pyridin-2-yl]oxy}quinolin-2-yl)[(3R)-3-ethylpiperazin-1-yl]methanone], for which the values for the IC50 in assay [1] (setting [4]) and in assay [2] were 594 nM and 2080 nM, respectively. For the same compound, in assay [3] (setting [7]), the inhibition in vivo at 10 mg/kg was 42%.
